The values below come from patent publication US12472221B2, “Composition for inhibiting osteoclasts containing agastache rugosa extract as active ingredient, and use thereof” (Korea Institute of Oriental Medicine, priority 2019, dated 2025).

Data set [1] concerns differentiation of bone marrow cell-derived macrophages (BMMs) into osteoclasts. As to the kind of experiment: Osteoclast differentiation of bone marrow cell-derived macrophages (M-CSF/RANKL, TRAP staining, osteoclast count). The data set is classed as cell-based, mice. To be noted: compared with WEAR at the same concentration. As for the experimental part:
Specifically, bone marrow cells of mice were cultured in α-MEM medium containing M-CSF (60 ng/ml) and 10% FBS for 3 days to obtain bone marrow cell-derived macrophages (BMMs), which were used as osteoclast progenitor cells. To generate osteoclasts, 1×10^4 pieces of the obtained BMMs were placed in per well of a 96-well plate, cultured for 4 days in a medium containing M-CSF (60 ng/ml) and RANKL (50 ng/ml), and the BMM were treated with hot water extract of Agastache rugosa (WEAR; 10, 33, 100, 200 μg/ml) or ethanol extract of Agastache rugosa (EEAR; 10, 33, 100 μg/ml) under the same culture condition. After fixing the cells with 10% formalin, TRAP (Tartrate-resistant acid phosphatase) staining was performed using naphthol AS-MS phosphate and Fast red violet LB salt, and TRAP-positive cells having three or more nuclei (osteoclasts) were counted. Data are presented as mean±standard deviation, and statistical analysis was performed using one-way ANOVA with Dunnett test, **p<0.01.
IC50 (inhibitory concentration 50), the concentration showing 50% inhibition efficiency, was calculated using PraphPad Prism software.
Specifically, WEAR-PO, WEAR-ED, P0-3 kDA Fx, P0-10 kDA Fx, P0-30 kDA Fx, P0-100 kDA Fx, P0-300 kDA Fx […], respectively, and the osteoclast differentiation inhibitory effect was assessed in the same manner as in Example <3-1>.

Data set [2] concerns bone marrow cell-derived macrophages (BMMs). As to the kind of experiment: Cell viability of osteoclast progenitor cells (CCK-8). The data set is classed as cell-based, mice. To be noted: 5 and 10 μg/ml, 2 days. As for the experimental part:
Specifically, 1.2×10^4 pieces of bone marrow cell-derived macrophages (BMMs) were placed in per well of a 96-well plate, and then cultured for 2 days in a medium containing M-CSF (60 ng/ […] ) in which hot water extract of Agastache rugosa extract (WEAR; 5, 10, 20, 33, 100 and 200 μg/ml), ethanol extract of Agastache rugosa (EEAR; 10, 33 and 100 μg/ml) or isoagastachoside (5 and 10 μg/ml) samples were added. Cell viability was determined by measuring absorbance at 450 nm using Cell counting Kit-8 (CCK-8, Dojindo Inc.), percentage of untreated controls and data are presented as mean±standard deviation, and statistical analysis was performed using one-way ANOVA with Dunnett test, **p<0.01.

Regarding `COc1ccc(-c2cc(=O)c3c(O)cc(O[C@@H]4O[C@H](CO)[C@@H](O)[C@H](O)[C@H]4OC(C)=O)cc3o2)cc1` [isoagastachoside], the “inhibitory effect on osteoclast differentiation (in words)” value is “inhibited osteoclast differentiation very significantly compared to WEAR at the same concentration” in data set [1] (10 μg/ml); “better inhibitory effect on osteoclast differentiation than WEAR at the same concentration” in data set [1] (5 and 10 μg/ml). Also, the “effect on cell survival” value in data set [2] was “no effect in cell survival”.
